The NIST ThermoML archive (doi:10.1016/j.jct.2008.01.001)
± gives the expanded uncertainty stated by the source.

Columns and labels:
[1] = Liquid; for mass density: 273.15 K, 101.33 kPa; for Normal boiling temperature: Ebulliometric method (Recirculating still)
[2] = refractive index (Na D-line) (dimensionless); details: 273.15 K; 101.33 kPa; Liquid; Standard Abbe refractometry

Question: For CCCCC(CC)CO (stereo not given) [2-ethyl-1-hexanol], which mass density [1] is on record?
Answer: 832.3 ± 1.2 kg/m3

Question: And the Normal boiling temperature [1]?
Answer: 185.1 ± 0.02 °C

Question: Which mass density [1] does the source give for CCC(=O)O [propanoic acid] here?
Answer: 992.7 ± 0.4 kg/m3

Question: And the Normal boiling temperature [1]?
Answer: 141.0 ± 0.02 °C

Question: And the refractive index [2]?
Answer: 1.3811 ± 0.0004
